Assay results as given in ChEMBL document CHEMBL3885881, “DrugMatrix”.

Organism: Rattus norvegicus
Assay: DrugMatrix - Regimen: Daily Repeat
Type: toxicity, organism-based, Sprague-Dawley
Parameters: regimen Daily Repeat, gender Male, age 6-8 weeks
Conditions: in vivo, po, route oral GAVAGE, […]; for ABSOLUTE BASOPHIL / ABSOLUTE EOSINOPHIL / ABSOLUTE LYMPHOCYTE / ABSOLUTE MONOCYTE / ABSOLUTE SEGMENTED NEUTROPHIL / BASOPHIL / EOSINOPHIL / ERYTHROCYTE COUNT / HEMATOCRIT / HEMOGLOBIN / LEUKOCYTE COUNT / LYMPHOCYTE / MEAN CORPUSCULAR HEMOGLOBIN / MEAN CORPUSCULAR HEMOGLOBIN CONCENTRATION / MEAN CORPUSCULAR VOLUME / MONOCYTE / NEUTROPHIL / NUCLEATED RED BLOOD CELLS / PLATELET COUNT: tissue Blood; for ALANINE AMINOTRANSFERASE / ALBUMIN / ALKALINE PHOSPHATASE / ASPARTATE AMINOTRANSFERASE / BLOOD UREA NITROGEN / CARBON DIOXIDE / CHLORIDE / CHOLESTEROL / CREATINE PHOSPHOKINASE / CREATININE / GLUCOSE / LACTATE DEHYDROGENASE / LIPASE / PHOSPHORUS / POTASSIUM / SODIUM / TOTAL BILIRUBIN / TOTAL PROTEIN / URIC ACID: tissue Plasma
[1] = 1 mg/kg, 120 h, dose level Low, time 5 day
[2] = 9 mg/kg, 72 h, dose level High, time 3 day
[3] = 9 mg/kg, 120 h, dose level High, time 5 day

In the case of `O=C(O)COC(=O)Cc1ccccc1Nc1c(Cl)cccc1Cl` [ACECLOFENAC], the “ABSOLUTE BASOPHIL” value [1] is reported as 0 CELLS/uL, the “ABSOLUTE EOSINOPHIL” value [1] is reported as 38.33 CELLS/uL and the “ABSOLUTE LYMPHOCYTE” value [1] is reported as 9464 CELLS/uL. The “ABSOLUTE MONOCYTE” value [1] was 76.67 CELLS/uL, the “ABSOLUTE SEGMENTED NEUTROPHIL” value [1] was 854.33 CELLS/uL and the BASOPHIL [1] was 0%. For the same molecule, the EOSINOPHIL [1] was 0.33%, the “ERYTHROCYTE COUNT” value [1] was 5.79 x10E6/uL and the HEMATOCRIT [1] was 35.33%. The HEMOGLOBIN [1] was 13.3 G/DL, the “LEUKOCYTE COUNT” value [1] was 10.43 x10E3/uL and the LYMPHOCYTE [1] was 90.67%. The “MEAN CORPUSCULAR HEMOGLOBIN” value [1] was 23 pg, the “MEAN CORPUSCULAR HEMOGLOBIN CONCENTRATION” value [1] was 37.7 G/DL and the “MEAN CORPUSCULAR VOLUME” value [1] was 61.07 fL. For the same molecule, the MONOCYTE [1] was 0.67%, the NEUTROPHIL [1] was 8.33% and the “NUCLEATED RED BLOOD CELLS” value [1] was 0 /100WBC. The “PLATELET COUNT” value [1] was 1057.67 x10E3/uL, the “ALANINE AMINOTRANSFERASE” value [1] was 60.67 u/L and the ALBUMIN [1] was 4.07 G/DL. For the same molecule, the “ALKALINE PHOSPHATASE” value [1] was 388 u/L, the “ASPARTATE AMINOTRANSFERASE” value [1] was 80.67 u/L and the “BLOOD UREA NITROGEN” value [1] was 14.33 mg/dL. For the same molecule, the “CARBON DIOXIDE” value [1] was 30.33 mmol/L, the CHLORIDE [1] was 101.33 MEQ/L and the CHOLESTEROL [1] was 53.33 mg/dL. For the same molecule, the “CREATINE PHOSPHOKINASE” value [1] was 180.67 u/L, the CREATININE [1] was 0.15 mg/dL and the GLUCOSE [1] was 160.67 mg/dL. The “LACTATE DEHYDROGENASE” value [1] was 106 u/L, the LIPASE [1] was 9 u/L and the PHOSPHORUS [1] was 9.9 mg/dL. The POTASSIUM [1] was 5.17 MEQ/L, the SODIUM [1] was 143 MEQ/L and the “TOTAL BILIRUBIN” value [1] was 0.23 mg/dL. For the same molecule, the “TOTAL PROTEIN” value [1] was 5.8 G/DL, the “URIC ACID” value [1] was 0.83 mg/dL and the “ABSOLUTE BASOPHIL” value [2] was 0 CELLS/uL. The “ABSOLUTE EOSINOPHIL” value [2] was 21.67 CELLS/uL, the “ABSOLUTE LYMPHOCYTE” value [2] was 7429.67 CELLS/uL and the “ABSOLUTE MONOCYTE” value [2] was 92.33 CELLS/uL. The “ABSOLUTE SEGMENTED NEUTROPHIL” value [2] was 1189.67 CELLS/uL, the BASOPHIL [2] was 0% and the EOSINOPHIL [2] was 0.33%. The “ERYTHROCYTE COUNT” value [2] was 5.12 x10E6/uL, the HEMATOCRIT [2] was 32.1% and the HEMOGLOBIN [2] was 12.63 G/DL. For the same molecule, the “LEUKOCYTE COUNT” value [2] was 8.73 x10E3/uL, the LYMPHOCYTE [2] was 84.67% and the “MEAN CORPUSCULAR HEMOGLOBIN” value [2] was 24.73 pg. For the same molecule, the “MEAN CORPUSCULAR HEMOGLOBIN CONCENTRATION” value [2] was 39.37 G/DL, the “MEAN CORPUSCULAR VOLUME” value [2] was 62.73 fL and the MONOCYTE [2] was 1.33%. For the same molecule, the NEUTROPHIL [2] was 13.67%, the “NUCLEATED RED BLOOD CELLS” value [2] was 0 /100WBC and the “PLATELET COUNT” value [2] was 823.33 x10E3/uL. For the same molecule, the “ALANINE AMINOTRANSFERASE” value [2] was 57 u/L, the ALBUMIN [2] was 3.37 G/DL and the “ALKALINE PHOSPHATASE” value [2] was 253 u/L. The “ASPARTATE AMINOTRANSFERASE” value [2] was 77.33 u/L, the “BLOOD UREA NITROGEN” value [2] was 10.67 mg/dL and the “CARBON DIOXIDE” value [2] was 34 mmol/L. For the same molecule, the CHLORIDE [2] was 99 MEQ/L, the CHOLESTEROL [2] was 73.67 mg/dL and the “CREATINE PHOSPHOKINASE” value [2] was 625.67 u/L. The CREATININE [2] was 0.12 mg/dL, the GLUCOSE [2] was 160.67 mg/dL and the “LACTATE DEHYDROGENASE” value [2] was 163.33 u/L. For the same molecule, the LIPASE [2] was 8.67 u/L, the PHOSPHORUS [2] was 11.57 mg/dL and the POTASSIUM [2] was 6.06 MEQ/L. The SODIUM [2] was 143.37 MEQ/L, the “TOTAL BILIRUBIN” value [2] was 0.13 mg/dL and the “TOTAL PROTEIN” value [2] was 5.3 G/DL. The “URIC ACID” value [2] was 1.03 mg/dL, the “ABSOLUTE BASOPHIL” value [3] was 0 CELLS/uL and the “ABSOLUTE EOSINOPHIL” value [3] was 0 CELLS/uL. For the same molecule, the “ABSOLUTE LYMPHOCYTE” value [3] was 9903.33 CELLS/uL, the “ABSOLUTE MONOCYTE” value [3] was 435.33 CELLS/uL and the “ABSOLUTE SEGMENTED NEUTROPHIL” value [3] was 2861.33 CELLS/uL. For the same molecule, the BASOPHIL [3] was 0%, the EOSINOPHIL [3] was 0% and the “ERYTHROCYTE COUNT” value [3] was 4.91 x10E6/uL. For the same molecule, the HEMATOCRIT [3] was 29.6%, the HEMOGLOBIN [3] was 11.33 G/DL and the “LEUKOCYTE COUNT” value [3] was 13.2 x10E3/uL. The LYMPHOCYTE [3] was 75.33%, the “MEAN CORPUSCULAR HEMOGLOBIN” value [3] was 23.1 pg and the “MEAN CORPUSCULAR HEMOGLOBIN CONCENTRATION” value [3] was 38.33 G/DL. The “MEAN CORPUSCULAR VOLUME” value [3] was 60.27 fL, the MONOCYTE [3] was 3.33% and the NEUTROPHIL [3] was 21.33%. For the same molecule, the “NUCLEATED RED BLOOD CELLS” value [3] was 0.33 /100WBC, the “PLATELET COUNT” value [3] was 1272 x10E3/uL and the “ALANINE AMINOTRANSFERASE” value [3] was 58.33 u/L. The ALBUMIN [3] was 3.03 G/DL, the “ALKALINE PHOSPHATASE” value [3] was 312 u/L and the “ASPARTATE AMINOTRANSFERASE” value [3] was 78.33 u/L. For the same molecule, the “BLOOD UREA NITROGEN” value [3] was 12 mg/dL, the “CARBON DIOXIDE” value [3] was 28.33 mmol/L and the CHLORIDE [3] was 101.67 MEQ/L. The CHOLESTEROL [3] was 58.33 mg/dL, the “CREATINE PHOSPHOKINASE” value [3] was 296.67 u/L and the CREATININE [3] was 0.2 mg/dL. For the same molecule, the GLUCOSE [3] was 165 mg/dL, the “LACTATE DEHYDROGENASE” value [3] was 151 u/L and the LIPASE [3] was 10 u/L. It also gave a PHOSPHORUS [3] of 10.13 mg/dL, a POTASSIUM [3] of 5.79 MEQ/L and an SODIUM [3] of 144.97 MEQ/L. For the same molecule, the “TOTAL BILIRUBIN” value [3] was 0.13 mg/dL, the “TOTAL PROTEIN” value [3] was 5.03 G/DL and the “URIC ACID” value [3] was 1.1 mg/dL.
